Experiments:
Homo sapiens [1] = species: Homo sapiens; assay: Selectivity ratio for human histamine H3 receptor over human histamine H1 receptor
Homo sapiens [2] = species: Homo sapiens; assay: Selectivity ratio for human histamine H3 receptor over human histamine H4 receptor
Histamine H3 receptor [3] = target: Histamine H3 receptor (Rattus norvegicus, UniProt Q9QYN8); assay: Displacement of [3H]NAMH from rat histamine H3 receptor transfected in CHO cells; format: cell-based
Histamine H3 receptor [4] = target: Histamine H3 receptor (Homo sapiens, UniProt Q9Y5N1); assay: Displacement of [3H]NAMH from human histamine H3 receptor transfected in CHO cells; format: cell-based
Sequence of Histamine H3 receptor (Homo sapiens, UniProt Q9Y5N1) (Q9Y5N1 whole entry): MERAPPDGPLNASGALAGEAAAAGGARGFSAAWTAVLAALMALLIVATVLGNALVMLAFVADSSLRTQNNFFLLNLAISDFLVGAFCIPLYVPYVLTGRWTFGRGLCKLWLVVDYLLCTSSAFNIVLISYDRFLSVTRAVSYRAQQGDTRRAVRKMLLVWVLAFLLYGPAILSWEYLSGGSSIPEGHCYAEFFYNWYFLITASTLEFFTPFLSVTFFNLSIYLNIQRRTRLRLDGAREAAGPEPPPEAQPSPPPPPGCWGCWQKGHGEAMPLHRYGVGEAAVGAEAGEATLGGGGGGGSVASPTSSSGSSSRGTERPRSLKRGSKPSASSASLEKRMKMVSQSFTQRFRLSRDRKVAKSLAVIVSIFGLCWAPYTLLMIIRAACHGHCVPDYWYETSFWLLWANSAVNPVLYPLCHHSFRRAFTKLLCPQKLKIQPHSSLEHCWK

Homo sapiens [5] = species: Homo sapiens; assay: Selectivity ratio for human histamine H3 receptor over human histamine H2 receptor
Cytochrome P450 2D6 = Cytochrome P450 2D6 (Homo sapiens, UniProt P10635); assay: Inhibition of CYP2D6 (unknown origin); format: ADME; settings: human
Sequence of Cytochrome P450 2D6 (P10635 whole entry): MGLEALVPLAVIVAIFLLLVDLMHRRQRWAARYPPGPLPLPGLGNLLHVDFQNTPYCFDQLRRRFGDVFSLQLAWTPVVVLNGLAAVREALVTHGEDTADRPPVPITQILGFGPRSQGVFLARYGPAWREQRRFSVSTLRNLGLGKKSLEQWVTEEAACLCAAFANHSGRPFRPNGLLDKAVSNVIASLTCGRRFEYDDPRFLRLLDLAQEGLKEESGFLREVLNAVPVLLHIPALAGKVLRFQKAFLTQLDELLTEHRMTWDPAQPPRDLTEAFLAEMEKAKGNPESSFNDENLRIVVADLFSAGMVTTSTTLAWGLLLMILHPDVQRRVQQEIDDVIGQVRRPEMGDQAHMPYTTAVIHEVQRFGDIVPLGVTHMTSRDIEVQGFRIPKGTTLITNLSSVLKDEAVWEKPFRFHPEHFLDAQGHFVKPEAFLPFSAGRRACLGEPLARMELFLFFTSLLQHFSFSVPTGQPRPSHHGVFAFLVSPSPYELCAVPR

Cytochrome P450 3A4 = Cytochrome P450 3A4 (Homo sapiens, UniProt P08684); assay: Inhibition of CYP3A4 (unknown origin); format: ADME; settings: human
Sequence of Cytochrome P450 3A4 (P08684 whole entry): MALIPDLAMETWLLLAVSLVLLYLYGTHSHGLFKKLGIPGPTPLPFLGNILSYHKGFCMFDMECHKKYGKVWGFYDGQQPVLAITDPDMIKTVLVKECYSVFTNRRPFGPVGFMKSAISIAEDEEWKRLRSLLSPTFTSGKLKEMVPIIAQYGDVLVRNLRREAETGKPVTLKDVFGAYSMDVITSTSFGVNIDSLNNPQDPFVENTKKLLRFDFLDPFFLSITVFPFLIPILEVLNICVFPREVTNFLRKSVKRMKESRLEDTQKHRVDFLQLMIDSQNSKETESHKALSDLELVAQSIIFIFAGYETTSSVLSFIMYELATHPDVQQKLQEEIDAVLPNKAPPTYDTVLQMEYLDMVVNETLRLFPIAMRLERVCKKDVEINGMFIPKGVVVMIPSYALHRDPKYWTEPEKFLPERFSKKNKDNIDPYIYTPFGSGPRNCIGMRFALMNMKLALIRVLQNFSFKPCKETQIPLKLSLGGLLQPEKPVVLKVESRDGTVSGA

Liver microsome [6] = assay: Metabolic stability in human liver microsomes; format: ADME
Liver microsome [7] = assay: Metabolic stability in dog liver microsomes; format: ADME, Canis lupus familiaris
Liver microsome [8] = assay: Metabolic stability in rat liver microsomes; format: ADME
[9] = Metabolic stability in mouse liver microsomes; format: ADME, Microsome
Cytochrome P450 2C9 = Cytochrome P450 2C9 (Homo sapiens, UniProt P11712); assay: Inhibition of CYP2C9 (unknown origin); format: ADME; settings: human
Sequence of Cytochrome P450 2C9 (P11712 whole entry): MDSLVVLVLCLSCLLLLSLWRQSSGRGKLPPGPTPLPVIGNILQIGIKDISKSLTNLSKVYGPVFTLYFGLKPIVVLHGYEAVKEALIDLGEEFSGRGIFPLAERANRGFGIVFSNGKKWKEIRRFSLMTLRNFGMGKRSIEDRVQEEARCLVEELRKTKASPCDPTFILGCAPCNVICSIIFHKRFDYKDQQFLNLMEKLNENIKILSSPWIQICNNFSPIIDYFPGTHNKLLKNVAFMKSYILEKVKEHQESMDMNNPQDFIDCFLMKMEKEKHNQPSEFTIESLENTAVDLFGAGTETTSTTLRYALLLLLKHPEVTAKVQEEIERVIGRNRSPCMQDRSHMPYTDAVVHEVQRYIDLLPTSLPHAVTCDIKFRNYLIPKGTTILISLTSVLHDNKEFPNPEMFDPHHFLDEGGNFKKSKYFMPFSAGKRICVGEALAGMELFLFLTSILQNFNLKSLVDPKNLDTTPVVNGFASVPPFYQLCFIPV

Cytochrome P450 1A2 = target: T1, Cytochrome P450 1A2 (Homo sapiens, UniProt P05177); assay: Inhibition of CYP1A2 (unknown origin); format: ADME; settings: human
T1 sequence (P05177 whole entry): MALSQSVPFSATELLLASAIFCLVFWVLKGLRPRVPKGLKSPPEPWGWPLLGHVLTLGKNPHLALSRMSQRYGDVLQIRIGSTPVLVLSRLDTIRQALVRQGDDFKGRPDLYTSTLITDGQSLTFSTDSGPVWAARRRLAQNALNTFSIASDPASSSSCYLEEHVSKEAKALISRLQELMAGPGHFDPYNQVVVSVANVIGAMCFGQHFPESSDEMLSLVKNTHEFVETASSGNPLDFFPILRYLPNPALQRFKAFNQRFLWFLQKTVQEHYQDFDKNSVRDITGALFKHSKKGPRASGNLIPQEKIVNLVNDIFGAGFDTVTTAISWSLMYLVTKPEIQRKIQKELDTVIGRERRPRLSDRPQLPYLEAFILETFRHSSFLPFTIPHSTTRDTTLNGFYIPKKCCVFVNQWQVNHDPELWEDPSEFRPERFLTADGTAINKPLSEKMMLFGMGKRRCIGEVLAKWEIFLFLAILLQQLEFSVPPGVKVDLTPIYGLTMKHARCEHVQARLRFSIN

Cytochrome P450 2C19 = Cytochrome P450 2C19 (Homo sapiens, UniProt P33261); assay: Inhibition of CYP2C19 (unknown origin); format: ADME; settings: human
Sequence of Cytochrome P450 2C19 (P33261 whole entry): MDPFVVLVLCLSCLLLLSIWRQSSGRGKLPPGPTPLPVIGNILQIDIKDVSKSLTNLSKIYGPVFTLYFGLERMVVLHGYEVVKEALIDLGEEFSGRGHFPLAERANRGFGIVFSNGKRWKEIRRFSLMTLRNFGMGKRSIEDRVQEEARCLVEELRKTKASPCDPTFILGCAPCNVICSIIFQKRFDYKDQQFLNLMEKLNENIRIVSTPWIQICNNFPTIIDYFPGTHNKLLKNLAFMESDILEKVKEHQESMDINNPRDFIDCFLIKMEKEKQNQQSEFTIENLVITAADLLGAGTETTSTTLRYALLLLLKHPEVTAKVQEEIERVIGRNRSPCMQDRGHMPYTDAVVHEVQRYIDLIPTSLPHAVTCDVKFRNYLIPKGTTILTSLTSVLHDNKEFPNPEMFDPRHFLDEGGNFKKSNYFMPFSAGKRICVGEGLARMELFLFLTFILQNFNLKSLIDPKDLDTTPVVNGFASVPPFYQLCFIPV

Sequence of Histamine H3 receptor (Rattus norvegicus, UniProt Q9QYN8) (Q9QYN8 whole entry): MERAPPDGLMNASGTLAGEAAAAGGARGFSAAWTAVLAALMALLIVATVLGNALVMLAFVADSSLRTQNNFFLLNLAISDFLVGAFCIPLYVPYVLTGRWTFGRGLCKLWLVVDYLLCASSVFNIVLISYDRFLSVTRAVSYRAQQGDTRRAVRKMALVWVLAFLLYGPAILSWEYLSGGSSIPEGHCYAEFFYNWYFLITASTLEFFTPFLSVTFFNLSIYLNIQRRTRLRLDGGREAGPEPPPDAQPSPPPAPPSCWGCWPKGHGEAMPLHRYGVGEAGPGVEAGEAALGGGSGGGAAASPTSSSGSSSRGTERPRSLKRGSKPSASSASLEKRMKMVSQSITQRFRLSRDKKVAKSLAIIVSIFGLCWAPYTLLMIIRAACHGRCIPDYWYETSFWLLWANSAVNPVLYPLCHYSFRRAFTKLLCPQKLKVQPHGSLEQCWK

Compound	Selectivity ratio (Homo sapiens [1])	Selectivity ratio (Homo sapiens [2])	Ki (Histamine H3 receptor [3])	Ki (Histamine H3 receptor [4])	Selectivity ratio (Homo sapiens [5])	inhibition (INH) (Cytochrome P450 2D6)	inhibition (INH) (Cytochrome P450 3A4)	Stability (Liver microsome [6])	Stability (Liver microsome [7])	Stability (Liver microsome [8])	Stability [9]	inhibition (INH) (Cytochrome P450 2C9)	inhibition (INH) (Cytochrome P450 1A2)	inhibition (INH) (Cytochrome P450 2C19)
CCN1N=C(c2ccc(OC3CCN(C4CCC4)CC3)cc2)C2CC2C1=O (racemic)	> 1000	> 1000	8 nM	4.5 nM	> 1000	–	–	–	–	–	–	–	–	–
CN1N=C(c2ccc(OC3CCN(C4CCCC4)CC3)cc2)C2CC2C1=O (racemic)	> 1000	> 1000	5.7 nM	3.6 nM	> 1000	–	–	–	–	–	–	–	–	–
O=C1NN=C(c2ccc(OC3CCN(C4CCCC4)CC3)cc2)C2CC12 (racemic)	> 1000	> 1000	8.1 nM	3.7 nM	> 1000	Not Active	Not Active	Stable	Stable	Stable	Stable	Not Active	Not Active	Not Active

— ChEMBL document CHEMBL3120141, “Discovery of (1R,6S)-5-[4-(1-cyclobutyl-piperidin-4-yloxy)-phenyl]-3,4-diaza-bicyclo[4.1.0]hept-4-en-2-one (R,S-4a): histamine H(3) receptor inverse agonist demonstrating potent cognitive enhancing and wake promoting activity” (Bioorg Med Chem Lett, 2014)
